{"source": "patent US20230095689A1", "about": "“METHOD OF CULTURING RECONSTRUCTED HUMAN SKIN” (Korea University Research and Business Foundation, priority 2021, published 2023)", "tested_on": "reconstructed human skin produced according to Example 1", "experiment": "Evaluation of skin barrier function of reconstructed human skin with liquid surfactant (MTT, OECD Test Guideline 439)", "assay_type": "cell-based", "experimental": "In order to confirm the skin barrier function of the reconstructed human skin produced according to the present invention, the skin barrier function was evaluated using the reconstructed human skin produced in the culture vessel having the inner wall coated with dopamine in Example 1. The skin barrier function was evaluated in a manner in which cell viability relative to an untreated control depending on the treatment time with 1% Triton X-100 was measured, and ET50 (Effective Time 50%), which is the time taken to reach the cell viability of 50%, was determined, according to the barrier evaluation method presented as a performance standard in OECD Test Guideline 439. […] The formazan dye thus formed was dissolved in 2 ml of 2-propanol, 200 μl thereof was placed in each of two wells of a 96-well plate, and optical density at a wavelength of 570 nm was measured using a plate reader, and each optical density of treated group was compared to those in untreated control, thereby calculating relative cell viability, and ET50 (Effective Time 50), which is the time taken to reach the cell viability of 50%, was determined.", "data": [{"substance": "Triton X-100", "values": [{"measurement": "relative cell viability", "setting": "1% Triton X-100 for 2, 5, 8 and 20 hours, MTT relative to untreated control", "result": "decreased depending on the treatment time"}, {"measurement": "ET50 (Effective Time 50), time taken to reach the cell viability of 50%", "setting": "200 μl of 1% Triton X-100 solution on upper surface, MTT, optical density at 570 nm relative to untreated control", "result": "about 4.5 hours"}]}]}
